The source of these data is PubChem BioAssay (NCI).

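Briefly, cells in 96-well plates were exposed to five compound concentrations for 48 h, and endpoints were estimated by linear interpolation. At the TGI there is no net growth.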

Among the test systems are LXFL 529 NSCLC; DMS 273 small cell lung; M19-MEL melanoma; KM20L2 colon; HOP-18 NSCLC; RXF-631 renal; SNB-78 CNS; XF 498 CNS.
Test in all cases: NCI anticancer screen, dose series, 48 h

Take `Cc1ccc(NP(=O)(Oc2ccccc2)N(CCCl)CCCl)cc1` (stereo unspecified): the TGI in the experiment with LXFL 529 NSCLC, in the experiment on DMS 273 small cell lung, with M19-MEL melanoma, with KM20L2 colon, in the experiment with HOP-18 NSCLC and in the experiment on RXF-631 renal was more than 100 µM in each case. The compound also displayed a TGI in the experiment with SNB-78 CNS of more than 100 µM.

Regarding `CCCCCCCCCCCCCCCc1ccc(OCC(O)CO)cc1` (stereo unspecified), the TGI in the experiment with XF 498 CNS was 39.3 µM; in the experiment on LXFL 529 NSCLC it was 68 µM; with DMS 273 small cell lung, 33.3 µM; in the experiment with M19-MEL melanoma it was 33.4 µM; with KM20L2 colon it was 94.4 µM; in the experiment with HOP-18 NSCLC it was more than 100 µM. The TGI in the experiment on RXF-631 renal amounted to 71.6 µM; with SNB-78 CNS, 99.3 µM.

Regarding `CN(C)c1nc(N(C)C)nc(N(C)CN(C)c2ccc(Cl)cc2)n1`, the TGI with XF 498 CNS, in the experiment with LXFL 529 NSCLC, in the experiment with DMS 273 small cell lung, in the experiment with M19-MEL melanoma and with SNB-78 CNS was more than 100 µM throughout.

Turning to `Cc1nc2c(n1C)C(=O)c1nc(CBr)[nH]c(=O)c1C2=O`, the TGI in the experiment on LXFL 529 NSCLC, with DMS 273 small cell lung, in the experiment with M19-MEL melanoma, in the experiment with KM20L2 colon and in the experiment on HOP-18 NSCLC was more than 100 µM in each case.

As for `C=CCc1cc(-c2cc(CC=C)c(O)c(CNC)c2)cc(CNC)c1O`, the TGI was 30.3 µM in the experiment with XF 498 CNS; 28.5 µM in the experiment with LXFL 529 NSCLC; 27.2 µM in the experiment with M19-MEL melanoma; 30.8 µM in the experiment on KM20L2 colon; 28.8 µM in the experiment with RXF-631 renal; 40.8 µM in the experiment on SNB-78 CNS.

As for `CSc1nc(NC2OCC(OC(C)=O)C(OC(C)=O)C2OC(C)=O)c(N=C(C)C(C)=O)c(=O)[nH]1` (stereo unspecified), the TGI in the experiment with XF 498 CNS, in the experiment on LXFL 529 NSCLC, in the experiment on DMS 273 small cell lung, in the experiment on HOP-18 NSCLC and with SNB-78 CNS was more than 100 µM in each case.
